From US20260083751A1, “ALLOSTERIC MODULATORS OF ANDROGEN RECEPTOR COACTIVATOR RECRUITMENT FOR CRPC THERAPY” (University of Pittsburgh – Of the Commonwealth System of …, priority 2022, published 2026)

What was measured:
Format in all cases: cell-based
C4-2 cells = test: Prostate cancer cell line growth inhibition assay, C4-2; details: C4-2, 72 h; read-out: AR positive C4-2 GI50
Description: (§1) Prostate Cancer Cell Line Growth Inhibition Assays: The PC-3, DU-145, LNCaP, C4-2, and 22Rv1 PC cell line growth inhibition assays have been described previously (Fancher et al., Assay Drug Dev Technol. 2016, 14:453-477; Fancher et al., Assay Drug Dev Technol. 2019, 17:364-386). On day 1, each PC cell line was harvested, counted, and seeded into two 384-well assay plates, a time zero (T0) and a time 72 h (T72) plate. PC cell lines were all seeded at 1,000 cells per well in 45 μL of tissue culture media in uncoated white clear bottom 384-well assay plates (VWR, #82050-076) using a Matrix electronic multichannel pipette (Thermo Fisher Scientific, Waltham, MA) and cultured overnight at 37° C., 5% CO2, and 95% humidity. On day 2, 25 μL of the CellTiter-Glo® (CTG) (Promega Corporation, Madison, WI) detection reagent was dispensed into the wells of the TO assay plate using a Matrix electronic multichannel pipette, and the RLUs were captured on the SpectraMax® M5e (Molecular Devices LLC, Sunnyvale, CA) microtiter plate reader. Also on day 2, 5 μL of compounds were transferred into the test wells of the T72 384-well assay plates which were returned to the incubator for 72 h. Control wells received DMSO alone. On day 5, 25 μL of the CTG detection reagent was dispensed into the wells of the T72 assay plate using a Matrix electronic multichannel pipette, and the RLU's were captured on the SpectraMax® M5e microtiter plate reader platform.
(§2) For the 96-well AR-LBD H^3-DHT radioligand binding assay, eight minimum and maximum plate control wells were utilized to normalize the data. […] To normalize the 72 h compound exposure PC growth inhibition data, the signals from the compound treated wells were processed and expressed as % of the T72 DMSO plate controls. IC50 and GI50 values for each of the bioassays were calculated using GraphPad Prism 9 software to plot and fit data to curves using the Sigmoidal dose response variable slope equation Y=Bottom+[Top-Bottom]/[1+10^(Log EC50−X)*HillSlope].

AR-LBD and TIF2 = molecular target: T1, AR-LBD and TIF2 (Homo sapiens, UniProt P10275); test: AR-TIF2 mammalian 2-hybrid assay; details: HEK 293 cells; read-out: Inhibition DHT-induced AR-TIF2 mammalian 2 hybrid assay IC50
T1 construct: AR-LBD amino acids 658-919 expressed as a fusion protein with Gal4-DBD; expressed in transfected cells; host or cells: HEK 293, transient co-transfection
T1 sequence (P10275 658-919): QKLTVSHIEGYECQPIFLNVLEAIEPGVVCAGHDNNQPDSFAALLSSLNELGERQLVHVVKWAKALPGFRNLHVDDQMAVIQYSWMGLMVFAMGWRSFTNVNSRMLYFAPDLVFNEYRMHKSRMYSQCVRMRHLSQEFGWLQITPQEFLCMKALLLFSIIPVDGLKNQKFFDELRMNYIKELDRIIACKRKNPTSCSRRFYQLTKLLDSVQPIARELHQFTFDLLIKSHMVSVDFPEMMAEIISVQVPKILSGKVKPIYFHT
Source text: TIF2 and SRC1 Mammalian 2-Hybrid Assays: The 5×GAL4-TATA-luciferase reporter plasmid was a gift from Dr. Richard Maurer from the Oregon Health and Science University (Gonzalez et al., Cell 1989, 59:675-80), and constructs pGAL4-hAR-658-919 (AR-LBD amino acids 658-919 expressed as a fusion protein with Gal4-DBD) (Askew et al., J Biol Chem 2007, 282:25801-16), pVP16-SRC1 (full-length SRC1 expressed as a fusion with VP16 activation domain) (He et al., J Biol Chem 1999, 274:37219-25) and pVP16-Empty vectors were kindly provided to us by Dr. Elizabeth Wilson, from UNC Chapel Hill. pVP16-TIF2 was generated as described previously (Fancher et al., Assay Drug Dev Technol. 2019, 17:364-386). HEK 293 cells were transiently co-transfected with 5 ng of pGal4-AR-LBD, 10 ng of either pVP16-TIF2 or pVP16-SRC1, and 20 ng of the 5×Gal4-TATA-Luc reporter as described previously (Ibid.). HEK 293 cells were bulk co-transfected with the three plasmids that had been individually incubated with FuGENE® 6 transfection agent (Fugent LLC, Middleton, WI) at a 3:1 ratio for 25 min at room temperature (RT) in serum free media (SFM) and then combined with HEK 293 cells that were suspended in DMEM (Cellgro10013CV) with 2 mM L-glutamine (Invitrogen) that was supplemented with 10% fetal bovine serum, and 5,000 cells in a volume of 40 μL were seeded into the wells of white opaque 384-well assay plates (Greiner Bio-one, #781080) and cultured overnight at 37° C., 5% CO2, and 95% humidity. […] 25 μL of BrightGlo® reagent (Promega, Madison, WI) was added to the plate and the relative luminescence units (RLUs) were captured on a SpectraMax® M5e microtiter plate reader (Molecular Devices, LLC, San Jose, CA).

LNCaP cells = test: Prostate cancer cell line growth inhibition assay, LNCaP; details: Homo sapiens, 72 h, read-out: AR positive LnCaP GI50
Description: as §1, §2

GI50 (C4-2 cells) | IC50 (AR-LBD and TIF2) | GI50 (LNCaP cells) | Compound
30.7 µM | 0.91 µM | 24.4 µM | Cc1ccccc1-c1cc(O)c2c(c1)CN(c1nc(C(N)=O)cs1)CCO2 [Compound S1-1]
8.66 µM | 0.05 µM | 15.6 µM | Cc1nsc(NC(=O)N2CCC(Sc3ccccc3C)CC2)n1 [Compound S2-6]
6.92 µM | 0.89 µM | 6.35 µM | Cc1c(-c2ccccc2F)[nH]c2ccc(CNC(=O)CCc3cn[nH]c3)cc12 [Compound S3-11]
